Target: prolyl 4-hydroxylase (collagen, EC 1.14.11.2)
Experiment: Inhibition of prolyl 4-hydroxylase by chromatographic determination of [14C]-succinic acid on ion-exchange minicolumna

For `O=C(NS(=O)(=O)c1ccccc1)c1ccc(-c2ccc(C(=O)NS(=O)(=O)c3ccccc3)cn2)nc1` [3-phenylsulfonamidocarbonyl-6-(5-phenylsulfonamidocarbonyl-2-pyridyl)pyridine], the IC50 was 5040 nM.

`CCOc1ccc(NC(=O)c2ccc(-c3ccc(C(=O)O)cn3)nc2)cc1` [5'-(4-Ethoxy-phenylcarbamoyl)-[2,2']bipyridinyl-5-carboxylic acid] showed an IC50 of 320 nM.
